Assays:
DPP8 = DPP8 (Homo sapiens, UniProt Q6V1X1); settings: Verspohl 2012; Huan et al. 2015; cited from earlier work
mCXCL10 = experiment: Chemokine quantification in B16F10 tumor homogenates (ELISA/Luminex); type: in vivo, mouse
Protocol: Soluble extracts were collected after centrifugation of tumor homogenates.
For detection of mCXCL10(1-77), MAXISORP PLATES® (Nunc) were coated with 4 μg/ml of α-mCXCL10 capturing antibody (MAB466, R&D) in PBS and incubated over night at 4° C. Plates were washed twice with 300 μL of PBS. […] Tumor and plasma samples were diluted in BSA 1% and incubated for 2h, at room temperature.

B16F10 tumors = experiment: Flow cytometry of leukocytes infiltrating B16F10 tumors; type: in vivo, mouse
Protocol: B16F10 and M04 (Ovalbumin-expressing B16F10 cells, gift from C. Reis e Sousa) tumor cells were cultured in DMEM (Gibco) supplemented with 10% FCS (PAA), 0.1 mM non-essential amino acids, 1 mM sodium pyruvate, 10 mM Hepes, 70 μM beta-mercaptoethanol and 23 μg/ml gentamycin (all from Gibco). CT26 colon carcinoma cells were cultured in RPMI (Gibco) supplemented as described for DMEM. Cells for injections were passaged 1-2 times after thawing, before use. WT and genetically modified mice were subcutaneously injected with 2×10^5 B16 or 5×10^5 CT26 cells in the shaved right flank. When indicated, mice received an intra-tumoral injection of 1 μg of recombinant mCXCL10, 5 μg CpG-A in DOPTAP or vehicle control. For blocking of chemokine and chemokine receptors, WT mice were intraperitoneally injected with 100 μg of hamster a-mCXCR3 (clone CXCR3-173, BioLegend), 100 μg of hamster α-mCCR5 (clone HM-CCR5, BioLegend), 50 μg of rat anti-mCXCL10 (clone 134013, R&D systems) and 20 μg of rat-α-mCXCR4 (clone 2B11/CXCR4, BD Biosciences) or with respective isotype antibodies (hamster IgG (clone HTK888, BioLegend, used as control for mCXCR3 and mCCR5 blockage); rat IgG2a (clone 54447, R&D systems, used as control for mCXCL10 blockade) and rat IgG2b (clone A95-1, BD Biosciences, used as control for mCXCR4 blockade). Intraperitoneal injection was done one day before and 4, 8 and 12 days after tumor cell injection. For CXCL10 neutralization, antibodies were injected on day 2, 5, 8 and 11 after tumor cell injection. For immunotherapy protocols, mice were intraperitoneally injected with 100 μg of mouse α-CTLA-4 (clone 9D9, Bioxcell), 200 μg of PD1 (clone RMP1-14, Bioxcell), a combination of 100 μg of α-CTLA-4+200 μg of a-PD1 or control isotypes (100 μg […] and 200 μg rat IgG2a (clone 2A3), both from Bioxcell) on day 3, 6 and 9 after tumor cell implantation. For adoptive cell transfer experiments, Pmel-1 Thy-1.1^+Thy-1.1^+, Cxcr3^−/− Thy-1.1^+Thy-1.2^+ Pmel-1 or OT1 splenocytes were activated ex-vivo, by incubation with 1 nM of human gp100 (for Pmel-1 cells) or […] (for OT1 cells) peptides for 1h at room temperature with agitation. Splenocytes were then washed and resuspended in R10 supplemented with 30U/mL of recombinant human IL-2. CD8^+ T cells were expanded for 6-7 days before used. For analysis of tumor infiltrates, activated Cxcr3^+/+ Thy-1.1^+Thy-1.1^+ and Cxcr3^−/− Thy-1.1^+Thy-1.2^+ transgenic Pmel-1 CD8^+ T cells were mixed in a 1:1 ratio (total 1×10^6 cells) and injected intravenously into gender matched tumor-bearing mice (3 days after tumor cell injection). For analysis of tumor growth, activated OT1 cells were injected intravenously (1×10^5 cells per mouse) into gender matched tumor-bearing mice, 3 days after tumor cell injection. Tumor height and width were measured with a caliper and tumor volume was calculated (Elliptical volume=width^2×height×0.523). The model of metastatic melanoma was achieved by intravenous injection of 2×10^5 B16 tumor cells. 15 days after tumor cell injection, lungs were dissected, placed in Fekete's solution and metastatic foci were counted. Lungs with more than 100 metastatic nodules were defined as 100.
Fluorochrome-conjugated anti-mouse CD3 (clone145-2C11), CD8 (clone 53-6.7), CD4 (clone RM4-5), NK1.1 (clone PK136), CD49b (clone DX5), CD25 (clone PC61), B220 (clone RA3-6B2), Ly6G (clone 1A8), Ly6C (clone AL-21), CD11 b (clone M1/70) Siglec-F (clone E50-2440), MHCII IA-IE (clone M5/114.15.2), CD45.2 (clones 56-0454-82 and 109830), Thy-1.1 (clone HIS51), Thy-1.2 (clone 53-2.1), DPP4 (clone H194-112) and CXCR3 (clone CXCR3-173) were from eBiosciences and BD Biosciences. Fluorochrome conjugated anti-F4/80 (clone CI:A3-1) was from AbDserotec. For exclusion of dead cells, Live/Dead fixable Aqua reagent (Invitrogen) was used. For all staining protocols, cell suspensions were incubated with mouse CD16/CD32 Fc Blocking antibodies (BD Biosciences) prior to antibody. […]

CT26 tumors = experiment: Flow cytometry of leukocytes infiltrating CT26 tumors; type: in vivo, mouse; settings: day 11, sitagliptin vs control
[1] = B16F10 tumors, sitagliptin vs control

Chain of DPP8 (Q6V1X1 whole entry, species assumed): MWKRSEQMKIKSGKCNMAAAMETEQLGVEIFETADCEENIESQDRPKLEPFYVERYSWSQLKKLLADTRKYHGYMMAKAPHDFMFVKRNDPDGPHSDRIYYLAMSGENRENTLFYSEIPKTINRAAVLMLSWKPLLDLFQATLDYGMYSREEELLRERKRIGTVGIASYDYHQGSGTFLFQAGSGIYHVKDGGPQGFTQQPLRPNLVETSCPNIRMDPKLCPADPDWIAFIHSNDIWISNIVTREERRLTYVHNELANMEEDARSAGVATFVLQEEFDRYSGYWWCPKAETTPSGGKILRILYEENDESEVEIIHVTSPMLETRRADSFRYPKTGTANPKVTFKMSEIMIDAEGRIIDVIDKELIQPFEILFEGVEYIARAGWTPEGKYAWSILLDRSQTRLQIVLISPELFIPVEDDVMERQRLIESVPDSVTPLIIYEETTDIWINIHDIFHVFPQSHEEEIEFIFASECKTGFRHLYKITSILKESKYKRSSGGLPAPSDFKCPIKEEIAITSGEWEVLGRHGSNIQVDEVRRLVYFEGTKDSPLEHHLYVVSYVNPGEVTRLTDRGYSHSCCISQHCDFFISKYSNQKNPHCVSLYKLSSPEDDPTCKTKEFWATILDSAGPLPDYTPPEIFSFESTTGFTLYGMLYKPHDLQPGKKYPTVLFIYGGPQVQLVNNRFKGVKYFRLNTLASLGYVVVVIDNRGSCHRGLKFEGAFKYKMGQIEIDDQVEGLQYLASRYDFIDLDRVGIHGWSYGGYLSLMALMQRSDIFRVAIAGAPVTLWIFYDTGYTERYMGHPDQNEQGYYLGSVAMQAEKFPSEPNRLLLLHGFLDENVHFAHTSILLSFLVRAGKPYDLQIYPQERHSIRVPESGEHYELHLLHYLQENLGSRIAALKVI

N[C@@H](CC(=O)N1CCn2c(nnc2C(F)(F)F)C1)Cc1cc(F)c(F)cc1F [sitagliptin]
effect on DPP8 activity (DPP8): no effect | tumor associated mCXCL10 concentration (mCXCL10; B16F10 tumors, sitagliptin-treated vs control mice): elevated concentrations | full-length mCXCL10(1-77) among total mCXCL10 in tumor (mCXCL10; after intra-tumoral CpG-A, sitagliptin vs control): protected the full-length form of the molecule | intra-tumoral expression of mCCL2 and mCCL22 after CpG-A (mCXCL10; control vs sitagliptin treated animals): no significant differences | number of CD4+ and CD8+ T cells localized to the tumors (B16F10 tumors; [1]): significant increase | number of tumor-infiltrating myeloid cells, NK cells, B lymphocytes or CD25hi regulatory T cells (B16F10 tumors; [1]): no significant differences | CXCL10-mediated trafficking of Pmel-1 cells into B16F10 tumors (B16F10 tumors; adoptive transfer, 12-14 hr after intratumoral mCXCL10): enhanced | lymphocyte recruitment into the tumor parenchyma after intratumoral mCXCL10 (B16F10 tumors; day 7 B16F10 tumors, 12-14 h after injection): enhanced CXCL10 recruitment of T cells and NK cells | trafficking of B cells, regulatory T cells, eosinophils or neutrophils into tumors after intratumoral mCXCL10 (B16F10 tumors; day 7 B16F10 tumors, sitagliptin vs control): unchanged | infiltration of lymphocytes, including T cell subsets and NK cells, into CT26 tumors (CT26 tumors): enhanced infiltration of lymphocytes | number of tumor associated B cells, eosinophils and CD25hi regulatory T cells in CT26 tumors (CT26 tumors): did not change

Reference: US11883398B2, “Dipeptidylpeptidase 4 inhibition enhances lymphocyte trafficking, improving both naturally occurring tumor immunity and immunotherapy” (INSTITUT PASTEUR, priority 2015, dated 2024)
